Experimental data reported in article PMC10197133, “Synthesis, Computational Insights, and Evaluation of Novel Sigma Receptors Ligands” (ACS Chemical Neuroscience, 2023).
Entries after “also recorded” stand apart in the source; their conditions may differ.

What was measured:
S2R = biological target: T1, S2R (Rattus norvegicus, UniProt Q5U3Y7); assay: S2R radioligand binding assay, [3H]DTG with (+)-pentazocine as S1R masking agent, liver homogenates; design: species or system male Sprague-Dawley rats; conditions: read-out: Ki (nM) ± SD S2R
T1 construct: from tissue; host or cells: rat liver homogenate (male Sprague-Dawley)
T1 sequence (Q5U3Y7 1-176): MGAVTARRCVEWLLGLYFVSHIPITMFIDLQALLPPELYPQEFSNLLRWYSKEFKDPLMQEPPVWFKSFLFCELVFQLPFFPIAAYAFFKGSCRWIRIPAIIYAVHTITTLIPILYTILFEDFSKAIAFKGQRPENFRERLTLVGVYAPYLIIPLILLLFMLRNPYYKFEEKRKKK
Description: (§1) The Ki-values were calculated with the program GraphPad Prism 7.0 (GraphPad Software, San Diego, California). The Ki-values are given as mean value ± SD from at least two independent experiments performed in duplicate.

S1R [1] = biological target: T2, S1R (Rattus norvegicus, UniProt Q9R0C9); assay: S1R radioligand binding assay, [3H](+)-pentazocine, liver homogenates; design: from tissue; host or cells: rat liver homogenate (male Sprague-Dawley); species or system male Sprague-Dawley rats; conditions: for KiS2R/KiS1R (preference for S1R over S2R): ratio of S2R Ki to S1R Ki; for Ki: read-out: Ki (nM) ± SD S1R
T2 sequence (Q9R0C9 whole entry): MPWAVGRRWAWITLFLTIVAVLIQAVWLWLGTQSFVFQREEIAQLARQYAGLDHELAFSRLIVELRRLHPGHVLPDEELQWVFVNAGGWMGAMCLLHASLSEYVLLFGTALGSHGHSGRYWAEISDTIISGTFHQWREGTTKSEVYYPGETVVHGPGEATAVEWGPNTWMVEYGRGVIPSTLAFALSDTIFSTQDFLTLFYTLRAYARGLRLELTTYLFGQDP
Description: as §1

[2] = test system: capsaicin-induced mechanical hypersensitivity in mice; assay: Capsaicin-induced secondary mechanical hypersensitivity (allodynia); assay type: in vivo, female CD1 mice; conditions: for S1R functional profile in vivo: concluded from the capsaicin model; for antiallodynic effect, compound administered alone / dose reaching full reversal of mechanical hypersensitivity (maximum antiallodynic effect): s.c.; for antiallodynic effect, compound administered alone: 30 min before capsaicin 1 μg i.pl., paw withdrawal latency at 0.5 g force, 4b 5–20 mg/kg, PRE-084 32 mg/kg; for antiallodynic effect when associated with the S1R agonist PRE-084: PRE-084 32 mg/kg s.c. 5 min before, BD-1063 40 mg/kg, 8f and 5b 20 mg/kg s.c.; for dose reaching full reversal of mechanical hypersensitivity (maximum antiallodynic effect): capsaicin 1 μg i.pl., mice
Description: We used capsaicin-induced secondary hypersensitivity (allodynia) as a pain model. It has been described that the increase in mechanical sensitivity in the area surrounding capsaicin injection (area of secondary allodynia) is due to central sensitization, which is a relevant process for chronic pain development and maintenance.[48]
Experiments were performed in female CD1 mice (Charles River, Barcelona, Spain) weighing 25–30 g. The mice were acclimated in our animal facilities for at least 1 week before testing and housed in a room under controlled environmental conditions: 12/12 h day/night cycle, air replacement every 20 min, and regulated temperature (22 ± 2 °C). The animals were fed a standard laboratory diet (Harlan Teklad Research Diet, Madison, Wisconsin) and tap water ad libitum until the beginning of the experiments. Testing was always performed from 9.00 to 15.00 h and randomly throughout the oestrous cycle. Animal care was made in accordance with institutional (Research Ethics Committee of the University of Granada, Spain), regional (Junta de Andalucía, Spain), and international standards (European Communities Council Directive 2010/63).
As selective S1R drugs, we used the S1R antagonist BD-1063 (1-[2-(3,4-dichlorophenyl)ethyl]-4-methylpiperazine dihydrochloride) and the S1R agonist PRE-084 (2-(4-morpholinethyl)-1-phenyl cyclohexane carboxylate hydrochloride) (both provided by Tocris Cookson, Bristol, U.K.).[57] The standard or experimental compounds were dissolved in 5% DMSO (Merck KGaA, Darmstadt, Germany) in physiological sterile saline (0.9% NaCl). They were prepared immediately before the start of the experiments and injected s.c. in a volume of 5 mL/kg into the interscapular area.
To test for the antiallodynic effects of BD-1063, 4b, 5b, or 8f, they were administered 30 min before the injection of capsaicin, used as the chemical algogen. To test the effects of PRE-084 or 4b on the antiallodynia induced by BD-1063, 8f, or 5b, the former were administered 5 min before the latter. When the effect of the association of several drugs was assessed, each injection was performed in different areas of the interscapular zone to avoid mixture of the drug solutions and any physicochemical interaction between them.
Capsaicin (Sigma-Aldrich Química S.A.) was dissolved in 1% DMSO in physiological sterile saline to a concentration of 0.05 μg/μL (i.e., 1 μg per mouse). Capsaicin solution was injected intraplantarly (i.pl.) into the right hind paw proximate to the heel, in a volume of 20 μL using a 1710 TLL Hamilton microsyringe (Teknokroma, Barcelona, Spain) with a 30^1/2-gauge needle. Control animals were injected with the same volume of the vehicle of capsaicin.
Animals were placed for 2 h in individual black-walled test compartments, which were situated on an elevated mesh-bottom platform with a 0.5-cm^2 grid to provide access to the ventral surface of the hind paws. Punctate mechanical stimulation was applied with a Dynamic Plantar Aesthesiometer (Ugo Basile, Varese, Italy) 15 min after capsaicin or saline administration (i.e., 45 min after the injection of the experimental drug). Briefly, a nonflexible filament (0.5 mm diameter) was electronically driven into the ventral side of the right hind paw (which was previously injected with capsaicin or vehicle) at least 5 mm away from the site of the injection toward the fingers. The intensity of the stimulation was fixed at 0.5 g force, as described previously.[49],[50] When a paw withdrawal response occurred, the stimulus was automatically terminated and the response latency was recorded. The filament was applied three times at intervals of 0.5 min, and the mean value of the three trials was considered the withdrawal latency time of the animal.

S1R [3] = biological target: T2, S1R; assay: S1R functional assay: S1R radioligand binding with or without phenytoin; design: incubating 200 μL of membrane preparation with 50 μL of 20 nM; from tissue; host or cells: membrane preparation; conditions: for ratio Ki (nM) control/+ phenythoin: >1 agonist, ≤1 antagonist; for S1R functional profile in vitro (phenytoin assay): concluded from Ki ratio control/with phenytoin
Description: In order to further asses the functional profile of compounds 4b, 5b, and 8f, the well-established phenytoin-based functional assay was carried out.[52] Previous studies have shown that phenytoin, a low-potent allosteric modulator for the S1R, differentially modulates the affinity of S1R ligands depending on their agonist versus antagonist functionality.
The functionality of compounds 4b, 5b, and 8f on S1R was determined using the same radiolabeled binding assay for the S1R in the presence of phenytoin. […] The final volume was 0.5 mL.

[4] = with phenytoin (20 μL of 25 mM in 0.5 mL), 120 min at 37 °C, read-out: Ki (nM) + phenythoin
[5] = without phenytoin, read-out: Ki (nM) control

SMILES	Ki (S2R) [nM]	KiS2R/KiS1R (preference for S1R over S2R) (S1R [1])	Ki (S1R [1]) [nM]	effect on the antiallodynic effect of BD-1063 ([2]; 4b 2.5–10 mg/kg s.c. associated with BD-1063 40 mg/kg s.c.)	S1R functional profile in vivo [2]	antiallodynic effect, compound administered alone [2]	ratio Ki (nM) control/+ phenythoin (S1R [3])	S1R functional profile in vitro (phenytoin assay) (S1R [3])	Ki (S1R [3]; [4]) [nM]	Ki (S1R [3]; [5]) [nM]	antiallodynic effect when associated with the S1R agonist PRE-084 [2]	dose reaching full reversal of mechanical hypersensitivity (maximum antiallodynic effect) [2] [mg/kg]
c1ccc(CCN2CC3(CCN(c4ccccc4)CC3)C2)cc1 [4a, 2-Phenethyl-7-phenyl-2,7-diazaspiro[3.5]nonane]	77 ± 12	2.8	28 ± 2	–	–	–	–	–	–	–	–	–
c1ccc(CCN2CC3(CCN(Cc4ccccc4)CC3)C2)cc1 [4b, 7-Benzyl-2-phenethyl-2,7-diazaspiro[3.5]nonane]	27 ± 5.3	~10	2.7 ± 0.3	fully reverse the antiallodynic effect of BD-1063	S1R agonistic in vivo effect	completely devoid of antiallodynic effect; also recorded: no antiallodynic effect	2.6	agonist profile for the S1R	1.2	3.2	–	–
c1ccc(CCN2CCC3(CC2)CN(CCc2ccccc2)C3)cc1 [4c, 2,7-Diphenethyl-2,7-diazaspiro[3.5]nonane]	22 ± 2.5	6.3	3.5 ± 0.3	–	–	–	–	–	–	–	–	–
c1ccc(CCCN2CC3(CCN(c4ccccc4)CC3)C2)cc1 [4d, 7-Phenyl-2-(3-phenylpropyl)-2,7-diazaspiro[3.5]nonane]	51 ± 5	1.5	34 ± 7.7	–	–	–	–	–	–	–	–	–
c1ccc(CCCN2CC3(CCN(Cc4ccccc4)CC3)C2)cc1 [4e, 7-Benzyl-2-(3-phenylpropyl)-2,7-diazaspiro[3.5]nonane]	31 ± 5.4	4.3	7.2 ± 0.5	–	–	–	–	–	–	–	–	–
c1ccc(CCCN2CC3(CCN(CCc4ccccc4)CC3)C2)cc1 [4f, 7-Phenethyl-2-(3-phenylpropyl)-2,7-diazaspiro[3.5]nonane]	149 ± 27	1.2	126 ± 22	–	–	–	–	–	–	–	–	–
O=C(c1ccccc1)N1CCC2(CC1)CN(CCc1ccccc1)C2 [5a, (2-Phenethyl-2,7-diazaspiro[3.5]nonan-7-yl)(phenyl)methanone]	255 ± 62	6.8	37 ± 9.6	–	–	–	–	–	–	–	–	–
O=C(Cc1ccccc1)N1CCC2(CC1)CN(CCc1ccccc1)C2 [5b, 1-(2-Phenethyl-2,7-diazaspiro[3.5]nonan-7-yl)-2-phenylethan-1-one]	102 ± 26	7.8	13 ± 2.5	–	S1R antagonistic in vivo effect	mimicked the effect of the known S1R antagonist	0.9	antagonists for the S1R	14	12	abolish the antiallodynic effect; also recorded: completely reversed their antiallodynic action	20
c1ccc(CN2CCCC3CN(c4ccccc4)CC32)cc1 (stereo not drawn) [8a, 1-Benzyl-6-phenyloctahydro-1H-pyrrolo[3,4-b]pyridine]	148 ± 29	0.6	254 ± 32	–	–	–	–	–	–	–	–	–
c1ccc(CCN2CCCC3CN(c4ccccc4)CC32)cc1 (stereo not drawn) [8b, 1-Phenethyl-6-phenyloctahydro-1H-pyrrolo[3,4-b]pyridine]	279 ± 83	0.6	505 ± 88	–	–	–	–	–	–	–	–	–
c1ccc(CCN2CCCC3CN(Cc4ccccc4)CC32)cc1 (stereo not drawn) [8c, 6-Benzyl-1-phenethyloctahydro-1H-pyrrolo[3,4-b]pyridine]	126 ± 19	–	19 ± 2.6	–	–	–	–	–	–	–	–	–
c1ccc(CCN2CC3CCCN(CCc4ccccc4)C3C2)cc1 (stereo not drawn) [8d, 1,6-Diphenethyloctahydro-1H-pyrrolo[3,4-b]pyridine]	114 ± 15	0.07	1730 ± 403	–	–	–	–	–	–	–	–	–
c1ccc(CCCN2CCCC3CN(c4ccccc4)CC32)cc1 (stereo not drawn) [8e, 6-Phenyl-1-(3-phenylpropyl)octahydro-1H-pyrrolo[3,4-b]pyridine]	91 ± 5.8	0.8	108 ± 31	–	–	–	–	–	–	–	–	–
c1ccc(CCCN2CCCC3CN(Cc4ccccc4)CC32)cc1 (stereo not drawn) [8f, 6-Benzyl-1-(3-phenylpropyl)octahydro-1H-pyrrolo[3,4-b]pyridine]	165 ± 36	16.5	10 ± 1.6	–	S1R antagonistic in vivo effect	mimicked the effect of the known S1R antagonist	0.8	antagonists for the S1R	12	9.6	abolish the antiallodynic effect; also recorded: completely reversed their antiallodynic action	20
c1ccc(CCCN2CCCC3CN(CCc4ccccc4)CC32)cc1 (stereo not drawn) [8g, 6-Phenethyl-1-(3-phenylpropyl)octahydro-1H-pyrrolo[3,4-b]pyridine]	1030 ± 200	1.4	710 ± 150	–	–	–	–	–	–	–	–	–
CN1CCN(CCc2ccc(Cl)c(Cl)c2)CC1.Cl.Cl [BD-1063, 1-[2-(3,4-dichlorophenyl)ethyl]-4-methylpiperazine dihydrochloride, reference compound]	–	–	–	–	–	full and dose-dependent reduction of mechanical hypersensitivity	0.7	–	10	6.7	abolish the antiallodynic effect	40
Cl.O=C(OCCN1CCOCC1)C1(c2ccccc2)CCCCC1 [PRE-084, 2-(4-morpholinethyl)-1-phenyl cyclohexane carboxylate hydrochloride, reference compound]	–	–	–	–	–	did not modify the response latency	–	–	–	–	–	–
C=CCN1CC[C@]2(C)c3cc(O)ccc3C[C@H]1[C@H]2C [SKF-10,047, reference compound]	–	–	–	–	–	–	5.8	agonist profile for the S1R	17	99	–	–
